Experimental data published in patent US12642759B2, “Cosmetic composition for improving skin containing extracts of polygala tenuifolia, angelica dahurica and elsholtzia splendens” (SOOY-K CO., LTD., priority 2023, dated 2026).

Tests used:
[1] = ABTS radical scavenging assay; format: biochemical; settings: concentration 50 μg/mL, positive control
Procedure: Antioxidant activity was measured using […] (ABTS) radical with reference to the Van den Berg method. This method uses the principle that ABTS+ radical, which has a blue-green color, is made to be transparent by antioxidants. 7 mM ABTS and 2.4 mM potassium persulfate were mixed and left at room temperature in the dark for 24 hours to form ABTS. Absorbance was measured at 734 nm, and the material was used for the experiment after adjusting the absorbance to 0.7±0.1. 100 μL of ABTS working solution and 100 μL of samples of each concentration were mixed and reacted in the dark for 10 minutes. Then, the absorbance was measured at […] and the radical scavenging activity was calculated as shown in Equation 2 below. Ascorbic acid, an antioxidant, was used as a positive control, and an ABTS solution which was not treated with a sample was used as a negative control. [formula] 1-5. Cell Culture

[2] = DPPH radical scavenging assay; format: biochemical; settings: concentration 50 μg/mL, positive control
Procedure: Antioxidant efficacy was measured by DPPH radical scavenging activity based on the Blois' method. This assay is one of the generation methods. DPPH is purple in the radical state, and when reduced by receiving electrons, it changes its color to yellow (DPPH-H). 100 μL of 0.2 mM DPPH solution and 80 μL of samples of each concentration were mixed in a 96-well plate, reacted for 30 minutes at room temperature in the dark, and then absorbance was measured at 517 nm to calculate radical scavenging activity according to Equation 1 below. Ascorbic acid, an antioxidant, was used as a positive control, and a DPPH solution which was not treated with a sample was used as a negative control. [formula] ABTS Radical Scavenging Assay

Staphylococcus aureus = assay: Antibacterial activity, paper disc method; format: cell-based; settings: 4 mg/mL, positive control, 8 mm paper disc, read-out: Clear zone
Procedure: The antibacterial effect was measured against Staphylococcus aureus (S. aureus). The paper disc method was used to measure the antibacterial activity of the samples. Each strain cultured on a solid plate medium was taken by a platinum loop, then inoculated into a 4 mL liquid medium, and cultured for 20 hours to activate it. Then, 500 μL of the strain was inoculated into 3 mL of liquid medium and cultured for 4 hours. The strain was inoculated onto a solid plate medium so that the number of bacteria was 1×10^6-5×10^6/mL, and then spread evenly using a spreader. Each sample was prepared according to the concentrations, and 50 μL of the sample was absorbed into a paper disc (Toyo, Japan) with a diameter of 8 mm. The paper disc was placed on a solid plate medium inoculated with the strain and cultured at 37° C. for 20 hours. Then, the diameter of the clear zone around the disc was measured. Disc diffusion test is performed by placing a disc into which a sample was absorbed on an agar plate medium inoculated with bacteria and culturing them, and then measuring the diameter of the inhibition zone (clear zone) of the sample that diffused around the disc as much as it inhibited the growth of the bacteria.

Compound: O=C1O[C@H]([C@@H](O)CO)C(O)=C1O [Ascorbic acid, ascorbic acid]
- ABTS radical scavenging activity (antioxidant activity) [1]: 99.68±0.21%
- DPPH radical scavenging activity (antioxidant activity) [2]: 87.21±0.56%

Compound: COC(=O)c1ccc(O)cc1 [Methyl paraben]
- zone of inhibition at 4000 µg/mL (Staphylococcus aureus): 8.5 mm
